Test results taken from patent US20240116946A1 (Gilead Sciences, Inc., priority 2022, published 2024).
Where two headings read alike, the source gives them in different places.

Assays:
SARS-CoV-2-NLuc = experiment: microbe, parasite or virus in culture; assay type: cell-based, SARS Coronavirus 2
[1] = biological target: recombinant SARS-CoV-2 Main protease (Mpro) (Severe acute respiratory syndrome coronavirus 2 (2019-nCoV) (SARS-CoV-2), UniProt P0DTD1); experiment: Cov Mpro Biochemical IC50 Assay
[2] = Severe acute respiratory syndrome coronavirus, 48 h, read-out: MPro EC50
[3] = recombinant SARS-CoV-2 Mpro, fluorogenic peptide substrate, read-out: MPro IC50
[4] = recombinant SARS-CoV-2 Mpro 7.5 nM, fluorogenic peptide substrate 40 μM, read-out: MPro IC50
[5] = Severe acute respiratory syndrome coronavirus, 48 h; read-out: MPro EC50
[6] = MPro IC50, recombinant SARS-CoV-2 Mpro, fluorogenic peptide substrate
[7] = MPro IC50, recombinant SARS-CoV-2 Mpro 7.5 nM, fluorogenic peptide substrate 40 μM

Row | Compound | EC50 (SARS-CoV-2-NLuc; [2]) | IC50 [1, 3] | IC50 [1, 4] | other results
1 | O=c1[nH]c2cc(-c3csc4ccccc34)ccc2c(=O)n1-c1cncc2ccccc12 [Example 50] | 9060 nM | 7920 nM | – | –
2 | Cn1ncc2cncc(-n3c(=O)c4sc(-c5ccc(F)cc5Cl)cc4n(CCC#N)c3=O)c21 (single isomer, unassigned) [Example 955, 3-(6-(2-chloro-4-fluorophenyl)-3-(1-methyl-1H-pyrazolo[4,3-c]pyridin-7-yl)-2,4-dioxo-3,4-dihydrothieno[3,2-d]pyrimidin-1(2H)-yl)propanenitrile] | – | – | 6.81 nM | EC50 (SARS-CoV-2-NLuc; read-out: MPro EC50): 9.67 nM
3 | COc1cc(-c2cc3[nH]c(=O)n(-c4cncc5cccnc45)c(=O)c3s2)c(Cl)cc1F (single isomer, unassigned) [Example 1008, 6-(2-chloro-4-fluoro-5-methoxy-phenyl)-3-(1,6-naphthyridin-8-yl)-1H-thieno[3,2-d]pyrimidine-2,4-dione] | – | – | 128 nM | EC50 (SARS-CoV-2-NLuc; read-out: MPro EC50): 138 nM
4 | COc1cc(-c2cc3c(s2)c(=O)n(-c2cncc4cnn(C)c24)c(=O)n3CCCC#N)c(Cl)cc1F [Example 658] | 22.8 nM | – | 14.4 nM | –
5 | COc1cc(-c2cc3c(s2)c(=O)n(-c2cncc4nc(C(F)(F)F)n(C)c24)c(=O)n3CCC#N)c(Cl)cc1F (single isomer, unassigned) [Example 973, 3-(6-(2-chloro-4-fluoro-5-methoxyphenyl)-3-(1-methyl-2-(trifluoromethyl)-1H-imidazo[4,5-c]pyridin-7-yl)-2,4-dioxo-3,4-dihydrothieno[3,2-d]pyrimidin-1(2H)-yl)propanenitrile] | – | – | 6.68 nM | EC50 (SARS-CoV-2-NLuc; read-out: MPro EC50): 14.7 nM
6 | COc1cc(-c2cc3c(s2)c(=O)n(-c2cncc4nc(C)n(C)c24)c(=O)n3CCC#N)c(Cl)cc1F [Example 842, 3-(6-(2-chloro-4-fluoro-5-methoxyphenyl)-3-(1,2-dimethyl-1H-imidazo[4,5-c]pyridin-7-yl)-2,4-dioxo-3,4-dihydrothieno[3,2-d]pyrimidin-1(2H)-yl)propanenitrile] | 27.5 nM | – | 6.66 nM | –
7 | COc1ccc(Cl)c(-c2cc3[nH]c(=O)n(-c4cncc5ccc(N6CCNC(=O)C6)cc45)c(=O)c3s2)c1 [Example 416] | 187 nM | – | 4.63 nM | –
8 | O=c1[nH]c2cc(-c3ccc(F)cc3Cl)ccc2c(=O)n1-c1cncc2ccccc12 [Example 183] | 354 nM | 585 nM | – | –
9 | O=c1[nH]c2cc(-c3cc(OC(F)F)ccc3Cl)ccc2c(=O)n1-c1cncc2ccccc12 [Example 330] | 212 nM | 326 nM | – | –
10 | COc1cc(-c2cc3c(s2)c(=O)n(-c2cncc4nc(C(F)(F)F)n(C)c24)c(=O)n3CCC#N)c(Cl)cc1F [Example 856, 3-(6-(2-chloro-4-fluoro-5-methoxyphenyl)-3-(1-methyl-2-(trifluoromethyl)-1H-imidazo[4,5-c]pyridin-7-yl)-2,4-dioxo-3,4-dihydrothieno[3,2-d]pyrimidin-1(2H)-yl)propanenitrile] | 46.1 nM | – | 23.2 nM | –
11 | COc1ccc(Cl)c(-c2ccc3c(=O)n(-c4cncc5ccc(N6CC7(CCOC7)C6)cc45)c(=O)[nH]c3c2)c1 [Example 410] | – | – | 12.8 nM | EC50 (SARS-CoV-2-NLuc; [5]): 58.6 nM
12 | COc1cc(-c2cc3[nH]c(=O)n(-c4cncc5cccc(F)c45)c(=O)c3s2)c(C#N)cc1F [Example 762] | 20.3 nM | – | 7.21 nM | –
13 | COc1ccc(Cl)c(-c2cc3[nH]c(=O)n(-c4cncc5cnn(C)c45)c(=O)c3s2)c1 [Example 498] | < 5.96 nM | – | < 2.54 nM | –
14 | N#CCCn1c(=O)n(-c2cncc3ccccc23)c(=O)c2sc(-c3cc(Cl)ccc3C#N)cc21 [Example 821] | 11.5 nM | – | 6.75 nM | –
15 | Cn1ccc(-c2cccc(Cl)c2-c2ccc3c(=O)n(-c4cncc5ccccc45)c(=O)[nH]c3c2)n1 [Example 146] | 60.6 nM | 99.7 nM | – | –
16 | N#CCn1c(=O)n(-c2cncc3cccnc23)c(=O)c2sc(-c3ccccc3Cl)cc21 [Example 710] | 22.6 nM | – | < 4.33 nM | –
17 | O=c1[nH]c2cc(-c3ccccc3Cl)c(OC3CC3)cc2c(=O)n1-c1cncc2ccccc12 [Example 80] | 232 nM | 768 nM | – | –
18 | COc1cc(-c2cc3[nH]c(=O)n(-c4cncc5cccnc45)c(=O)c3s2)c(C#N)cc1F [Example 543] | 240 nM | – | 9.91 nM | –
19 | COc1cnc(Cl)c(-c2cc3[nH]c(=O)n(-c4cncc5ccccc45)c(=O)c3s2)c1 [Example 364, 6-(2-chloro-5-methoxypyridin-3-yl)-3-(isoquinolin-4-yl)thieno[3,2-d]pyrimidine-2,4(1H,3H)-dione] | 18.2 nM | 5.31 nM | – | –
20 | COc1cc(-c2cc3c(s2)c(=O)n(-c2cncc4nc(C)n(C)c24)c(=O)n3CCC#N)c(C#N)cc1F [Example 855] | 498 nM | – | 19 nM | –
21 | COc1cc(-c2cc3[nH]c(=O)n(-c4cncc5cnn(C)c45)c(=O)c3s2)c(C)cc1F [Example 657] | 27.4 nM | – | 14.4 nM | –

Row | Compound | EC50 (SARS-CoV-2-NLuc; [2]) | IC50 [1, 3] | IC50 [1, 4] | other results
22 | Cc1noc(C)c1-c1ccc2c(=O)n(-c3cncc4ccccc34)c(=O)[nH]c2c1 [Example 44] | – | – | – | EC50 (SARS-CoV-2-NLuc; [5]): 3000 nM; IC50 [1, 6]: 1370 nM
23 | N#Cc1cc(-c2cccc(Cl)c2-c2ccc3c(=O)n(-c4cncc5ccccc45)c(=O)[nH]c3c2)ccn1 [Example 328] | 45.9 nM | 15.4 nM | – | –
24 | Cc1nnc(-c2cccc(-c3ccc4c(=O)n(-c5cncc6ccccc56)c(=O)[nH]c4c3)c2)o1 [Example 39] | – | 7750 nM | – | EC50 (SARS-CoV-2-NLuc; [5]): 23400 nM
25 | COc1ccc(C#N)c(-c2cc3[nH]c(=O)n(-c4cncc5cccc(F)c45)c(=O)c3s2)c1 [Example 446] | 25.5 nM | – | 8.74 nM | –
26 | COc1cccc(Cl)c1-c1cnc2c(=O)n(-c3cncc4ccccc34)c(=O)[nH]c2c1 [Example 48] | – | 95.7 nM | – | EC50 (SARS-CoV-2-NLuc; [5]): 277 nM
27 | COc1cc(-c2cc3[nH]c(=O)n(-c4cncc(C5CC5)c4)c(=O)c3s2)c(Cl)cc1F [Example 753] | – | – | – | EC50 (SARS-CoV-2-NLuc; [5]): 14.6 nM; IC50 [1, 7]: 6.88 nM
28 | CCCn1cc(-c2cccc(Cl)c2-c2ccc3c(=O)n(-c4cncc5ccccc45)c(=O)[nH]c3c2)c(C(F)(F)F)n1 [Example 200] | 36 nM | 112 nM | – | –
29 | COc1cc(-c2cc3[nH]c(=O)n(-c4cncc5c4OCCC5)c(=O)c3s2)c(Cl)cc1F [Example 1079] | 9.56 nM | – | 10.3 nM | –
30 | COC(=O)Cn1c(=O)n(-c2cncc3ccccc23)c(=O)c2sc(-c3ccccc3Cl)cc21 [Example 220] | 86.6 nM | 29.1 nM | – | –
31 | COc1ccc(Cl)c(-c2cc3[nH]c(=O)n(-c4cncc5ccc(OC)cc45)c(=O)c3s2)c1 [Example 625] | 18.1 nM | – | 6.91 nM | –
32 | COc1cc(-c2cc3[nH]c(=O)n(-c4cnccc4C)c(=O)c3s2)c(Cl)cc1F [Example 713] | – | – | – | EC50 (SARS-CoV-2-NLuc; [5]): 15 nM; IC50 [1, 7]: 9.18 nM
33 | O=C1NCc2cc(-c3cccc(Cl)c3-c3ccc4c(=O)n(-c5cncc6ccccc56)c(=O)[nH]c4c3)ccc21 [Example 360] | 42.1 nM | 19.4 nM | – | –
34 | CS(=O)(=O)c1ccc(-c2cccc(Cl)c2-c2ccc3c(=O)n(-c4cncc5ccccc45)c(=O)[nH]c3c2)cn1 [Example 204] | 49 nM | 11.7 nM | – | –
35 | COc1cc(-c2cc3[nH]c(=O)n(-c4cncc5sc(C(F)F)c(C)c45)c(=O)c3s2)c(Cl)cc1F [Example 1060, 6-(2-chloro-4-fluoro-5-methoxyphenyl)-3-(2-(difluoromethyl)-3-methylthieno[2,3-c]pyridin-4-yl)thieno[3,2-d]pyrimidine-2,4(1H,3H)-dione] | 28.9 nM | – | 20 nM | –
36 | COc1cc(-c2cc3c(s2)c(=O)n(-c2cncc(C4CC4)c2)c(=O)n3CCC#N)c(Cl)cc1F [Example 924] | 5.31 nM | – | 2.52 nM | –
37 | O=c1[nH]c2cc(-c3ccccc3Cl)sc2c(=O)n1-c1cncc2ccccc12 [Example 1, 6-(2-chlorophenyl)-3-(isoquinolin-4-yl)thieno[3,2-d]pyrimidine-2,4(1H,3H)-dione] | – | 10.8 nM | – | EC50 (SARS-CoV-2-NLuc; [5]): 28.9 nM
38 | O=c1[nH]c2cc(-c3ccccc3C3CC3)ccc2c(=O)n1-c1cncc2ccccc12 [Example 45] | – | – | – | EC50 (SARS-CoV-2-NLuc; [5]): 1220 nM; IC50 [1, 6]: 1710 nM
39 | O=c1[nH]c2cc(-c3ccccc3)ncc2c(=O)n1-c1cncc2ccccc12 [Example 164] | 12500 nM | 7880 nM | – | –
40 | Cc1cncc(-n2c(=O)[nH]c3cc(-c4ccccc4Cl)sc3c2=O)c1OCC(F)(F)F [Example 372] | 176 nM | 77.8 nM | – | –
41 | COc1cnc(Cl)c(-c2ccc3c(=O)n(-c4cncc5ccccc45)c(=O)[nH]c3c2)c1 [Example 257] | 1150 nM | 500 nM | – | –
42 | COc1cccc(F)c1-c1ccc2c(=O)n(-c3cncc4ccccc34)c(=O)[nH]c2c1 [Example 61] | 648 nM | 914 nM | – | –
